In general, Ki refers to the equilibrium dissociation constant of an inhibitor or competing ligand from its target. As usually defined, the IC50 is the point on the concentration scale where inhibition reaches its midpoint. What is called Kd is the free concentration of one partner at which half of the binding sites on the other are occupied at equilibrium, for simple one-to-one binding. Read a high Kd as a looser complex.

“Also recorded” adds a separate entry of the source. Read-outs that look alike come from different tables or passages of the source.

For series [1], the target named is full length human STAT3 protein (Homo sapiens, UniProt P40763). As to the kind of experiment: FP specificity assay, STAT3. The format is binding. Conditions: concentrations up to 1 mM. From the text:
Cell Lines and Culture Condition

Series [2] addresses T1, protein tyrosine phosphatase SHP2 (Homo sapiens, UniProt Q06124).
T1 sequence (Q06124 1-593): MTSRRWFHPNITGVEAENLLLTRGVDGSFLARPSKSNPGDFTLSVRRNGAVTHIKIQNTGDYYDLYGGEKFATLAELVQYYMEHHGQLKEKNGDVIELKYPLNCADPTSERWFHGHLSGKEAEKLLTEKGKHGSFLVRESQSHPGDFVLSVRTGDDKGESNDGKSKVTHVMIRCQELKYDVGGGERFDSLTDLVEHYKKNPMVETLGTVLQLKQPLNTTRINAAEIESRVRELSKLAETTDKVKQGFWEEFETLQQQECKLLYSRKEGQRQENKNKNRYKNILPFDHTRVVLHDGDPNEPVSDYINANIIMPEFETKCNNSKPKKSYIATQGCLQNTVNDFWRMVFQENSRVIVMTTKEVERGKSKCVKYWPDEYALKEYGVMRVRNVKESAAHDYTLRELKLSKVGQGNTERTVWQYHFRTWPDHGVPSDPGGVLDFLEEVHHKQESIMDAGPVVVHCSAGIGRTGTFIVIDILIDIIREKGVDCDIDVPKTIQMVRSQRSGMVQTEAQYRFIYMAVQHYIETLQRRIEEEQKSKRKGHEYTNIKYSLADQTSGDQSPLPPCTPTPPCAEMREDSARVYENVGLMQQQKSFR
As to the kind of experiment: SHP2 inhibition (specificity). Conditions: concentrations up to 1 mM. The series is classed as biochemical.

In series [3] the test system is phosphorylated STAT5 dimers. The experiment in a line: ELISA-based STAT5 transcription factor assay of (STAT5)2-DNA complexes. The series is classed as biochemical, murine. Conditions: cell-free, nuclear extract incubated 1 h at room temperature. Here is the method:
As an additional confirmation for the mode of action of the STAT5-binding fragments, we finally investigated their potential to interfere directly with the binding of phosphorylated STAT5 dimers to the target DNA sequences of the transcription factor. […] (FIGS. 6C, D) Nuclear extracts and cytoplasmic extracts were prepared from BaF3 FLT3-ITD cells using the Nuclear Extraction kit (Active Motif, Carlsbad, Calif., USA) according to the manufacturer's protocol. STAT5 activity was determined in nuclear protein extracts (20 μg) by the TransAM STATs family kits from Active Motif (Carlsbad, Calif.). All assays were performed following the manufactory instruction after the nuclear protein extraction.

The next series has as its system STAT5 dimer. As to the kind of experiment: Gel shift assay (EMSA) of STAT5 DNA binding. The series is classed as biochemical, murine. To be noted: BaF3/FLT3-ITD nuclear extract. As to the method:
Nuclear extracts and cytoplasmic extracts were prepared from BaF3 FLT3-ITD cells using the Nuclear Extraction kit (Active Motif, Carlsbad, Calif., USA) according to the manufacturer's protocol.
A gel shift assay was conducted using a double-stranded, biotin-labeled oligonucleotide probe containing the consensus binding site for STAT5 (sense strand, 5′-[…]-3′), using the Gelshift Chemiluminescent EMSA kit (Active Motif) according to the manufacturer's protocol. Protein-DNA complexes were resolved on a nondenaturing polyacrylamide gel, transferred to a positively charged nylon membrane, and cross-linked to a membrane using the UV-light cross-linker. After blocking, the membrane was incubated with blocking buffer containing streptavidin conjugated to HRP. After washing, protein-DNA complexes were detected using a chemi-luminescent substrate (Active Motif).

Another series has as its target T2, STAT5b-SH2 domain (Homo sapiens, UniProt P51692).
T2 sequence (P51692 136-703): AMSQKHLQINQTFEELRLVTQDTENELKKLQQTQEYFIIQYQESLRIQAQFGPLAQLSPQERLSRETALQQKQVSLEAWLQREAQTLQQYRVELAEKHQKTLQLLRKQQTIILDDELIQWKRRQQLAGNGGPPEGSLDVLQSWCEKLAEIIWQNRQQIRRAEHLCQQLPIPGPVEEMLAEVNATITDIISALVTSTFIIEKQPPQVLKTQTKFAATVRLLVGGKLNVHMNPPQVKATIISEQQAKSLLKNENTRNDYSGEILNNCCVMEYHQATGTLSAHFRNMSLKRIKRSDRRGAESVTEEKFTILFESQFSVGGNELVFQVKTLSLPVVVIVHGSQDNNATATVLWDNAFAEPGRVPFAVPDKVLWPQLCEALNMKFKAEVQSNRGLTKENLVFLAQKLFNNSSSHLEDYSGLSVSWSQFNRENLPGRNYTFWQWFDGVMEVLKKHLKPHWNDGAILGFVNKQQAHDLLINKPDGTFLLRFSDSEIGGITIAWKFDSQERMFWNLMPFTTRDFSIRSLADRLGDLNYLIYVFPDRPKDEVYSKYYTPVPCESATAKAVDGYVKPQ
As to the kind of experiment: Competitive fluorescence polarization (FP) assay, STAT5b-SH2 domain. On the technique in general: Fluorescence polarisation rises when a labelled molecule tumbles more slowly, as on binding a larger partner.

In a further series the target is T3, STAT3 (Mus musculus, UniProt P42227).
T3 construct: endogenous in cells; context BaF3/FLT3-ITD
The experiment in a line: STAT3 phosphorylation and expression in cells. The format is cell-based. To be noted: selectivity in cells.

For series [4], the system named is Pim1 kinase, cyclin D1 and Bcl-xl. The experiment in a line: Expression of transcriptional targets of STAT5, Western blot in BaF3/FLT3-ITD cells. The series is classed as cell-based, murine. To be noted: BaF3/FLT-ITD cells, after 6 h. From the text:
(FIGS. 7A, B). Next, the functional effects of STAT5 inhibitors (6) and (15) on cellular transcription were investigated. For the purpose, the expression of three transcriptional targets of STAT5, namely Pim1 kinase, cyclin D1 and Bcl-xl, which play essential roles in cell cycle progression and survival, was monitored by Western Blotting (FIGS. 6A, B).
For orientation: Immunoblotting shows a protein as a band on a membrane.

Another series relates to BaF3/FLT3-ITD cells. The experiment in a line: Cell proliferation assay (Alamar blue). The series is classed as cell-based, murine. To be noted: 48 h, Alamar blue, FLT3-ITD cells. Here is the method:
Having proven the functional inhibition of STAT5 as a transcription factor, the effect of STAT5 inhibitors on the proliferation of cancer cells carrying the common FLT3-ITD mutation was investigated. Cells were incubated for 48 h and cell proliferation was quantified by the Alamar blue assay (FIG. 5). […] For comparison, we have tested both compounds on non-STAT5-dependent cell lines and the cytotoxicity effect were negligible up to 500 μM. (FIG. S9).
(§1) The effect of compounds on cell lines was evaluated by In Vitro Toxicology Assay Kit, Resazurin based with indicator dye Alamar Blue (Sigma). Adherent and suspension cells were plated at 5×10^3 per well and 1×10^4 per well respectively in triplicate in 96-well plates and incubated in medium containing 10% FBS. For adherent cell, the complete medium was replaced after 24 hours and incubated with test medium containing vehicle control or serial concentration of compounds for 48 hours at 37° C. The remaining wells in the periphery of the microtiter well plate were added PBS and not used to avoid evaporation effects. Alamar Blue was then added, and all plates were incubated at 37° C., and a colorimetric change was measured according to the methods provided by the provided protocol.

For series [5], the system named is non-STAT5-dependent cell lines. As to the kind of experiment: Cytotoxicity on non-STAT5-dependent cell lines. The series is classed as cell-based. Conditions: up to 500 μM. As to the method: Carol Stocking (University Hospital Hamburg-Eppendorf). […] Cells were incubated at 37° C., 5% CO2 atmosphere.
as §1

The test system of another series is STAT5. The experiment in a line: STAT5 phosphorylation, Western blot in BaF3/FLT3-ITD cells. To be noted: for reduction of STAT5 phosphorylation / IC50: 6 h; for reduction of STAT5 phosphorylation / tyrosine phosphorylation of STAT5, dose dependence / overall expression of endogenous STAT5: BaF3/FLT3-ITD; for tyrosine phosphorylation of STAT5, dose dependence: 6 h treatment; for IC50: read-out: IC50 of STAT5 phosphorylation inhibition, BaF3/FLT3-ITD cells.

A short description of another series: Solubility. Conditions: compared to the 5-aryl-substituted tetrazole. The series is classed as physicochemical.

T3 sequence (P42227 whole entry): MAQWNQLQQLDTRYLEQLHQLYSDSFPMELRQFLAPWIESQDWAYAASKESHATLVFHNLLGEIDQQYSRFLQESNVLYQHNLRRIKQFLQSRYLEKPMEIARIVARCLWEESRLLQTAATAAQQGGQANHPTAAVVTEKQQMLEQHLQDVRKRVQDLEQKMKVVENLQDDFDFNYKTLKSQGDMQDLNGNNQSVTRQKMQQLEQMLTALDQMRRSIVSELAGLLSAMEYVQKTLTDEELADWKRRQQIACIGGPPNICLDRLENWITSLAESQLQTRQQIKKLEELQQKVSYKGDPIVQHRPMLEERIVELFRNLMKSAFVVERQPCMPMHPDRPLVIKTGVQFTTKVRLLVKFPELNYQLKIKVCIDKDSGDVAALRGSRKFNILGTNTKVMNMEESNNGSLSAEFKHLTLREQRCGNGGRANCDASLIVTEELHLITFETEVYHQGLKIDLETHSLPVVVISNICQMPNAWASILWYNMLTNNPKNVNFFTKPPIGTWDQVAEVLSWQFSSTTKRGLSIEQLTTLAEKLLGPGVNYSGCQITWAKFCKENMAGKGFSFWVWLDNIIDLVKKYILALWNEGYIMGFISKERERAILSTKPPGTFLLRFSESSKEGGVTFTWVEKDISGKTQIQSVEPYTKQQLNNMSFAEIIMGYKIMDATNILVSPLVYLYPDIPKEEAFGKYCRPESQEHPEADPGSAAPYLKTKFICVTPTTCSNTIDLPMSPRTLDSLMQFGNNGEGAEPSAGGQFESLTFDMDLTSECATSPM
Chain of full length human STAT3 protein (P40763 whole entry): as the sequence (P42227 whole entry) above, with D760E counted along it
Method for STAT5b-SH2 domain: The ChemBioNet fragment collection composed in accordance with the substructure composition of the World Drug Index (WDI) was screened both for enhancing and inhibiting fragments of the phosphopeptide-STAT5 interaction.
The clone for Stat5b expression was kindly provided by Thorsten Berg (MPI, Martinsried). Expression of that truncated version of Stat5b (aa 136-703) cloned into a modified pQE70, with N-terminal MBP-tag and C-terminal His-tag was conducted on autoinduction medium (overnight express/Novagen). Cells were grown to an optical density (O.D.) of 0.3 at 37° C., then the temperature was reduced to 20° C. for further 48 h of expression. […] The protein was purified by Ni-chelating chromatography followed by gel filtration (Superdex 200/10 mM HEPES pH 7.8, 100 mM NaCl, 1 mM EDTA, 1 mM DTT, 10% glycerol). A yield of 15 mg MBP-Stat5b-His per liter of culture was obtained and aliquots (200 μl of 3.2 mg/ml) were quick-frozen and stored at −80° C., ready for use.
17000 compounds from the (FMP) ChemBioNet library were tested in a competitive-based fluorescence polarization (FP) assay to investigate the ability of compounds to bind to STAT5b-SH2 domain by displacing respective fluorophore-labeled peptides (5-carboxyfluorescein-GY (PO3H2) LSLPPW-NH2). The peptide purity was >95% and the screening were performed at room temperature. The final concentration of buffer components used was 10 mM HEPES (pH 7.5), 1 mM EDTA, 0.1% Igepal CA-630, 50 mM NaCl, and 5% DMSO. The final concentration of protein used was at 65 nM which correspond to the dissociation constants (Kd) for the individual protein-peptide interactions in assay buffer. The protein was first added to the black 384 well plate (Corning 3676) followed by test compounds and fluorophore-labeled peptide. The plates were centrifuged, and measured using Safire^2 well plate reader (Tecan, Crailsheim, Germany) after 15 minutes incubation at room temperature. […] For the analysis of the data GraphPad Prism 5 was used. Ligand efficiencies (LE) were calculated using equation derived as followed. LE=−ΔG°/HA with (ΔG°) is the standard free energy of binding in KJ and HA is the number of non-hydrogen atoms.

On to `O=C(O)c1nonc1NCn1cnnn1` [Compound 3, 4-((1H-Tetrazol-1-yl)-methylamino)-furazan-3-carboxylic Acid], for which, in series [1], the “binding to the SH2 domain of STAT3” value is on record as “no binding”. Besides, the “inhibition of SHP2” value in [2] was “No inhibition”. The “inhibition of protein-dimer-DNA complex formation” value in [3] is “more potent inhibitor than compounds (15) and (6)”. In addition, the “STAT5 dimer DNA-binding activity” value in the series on STAT5 dimer is “inhibits”. Besides, at STAT5b-SH2 domain, the affinity corresponds to a Ki of 1.4 ± 0.5 µM and the ligand efficiency is given as 2.23 kJ/mol per non-hydrogen atom. The LE at STAT5b-SH2 domain (Table 1, ligand efficiency) came to 2.23 kJ/mol* atom#.

As to `COC(=O)c1nonc1NCn1cnnn1` [Compound 6, Methyl 4-((1H-tetrazol-1-yl)-methylamino)-furazan-3-carboxylate], at STAT3, the STAT3 phosphorylation result is given as “negligible effects” and the “endogenous STAT3 expression” value was “negligible effects”. In addition, in [4], the “Pim1, cyclin D1 and Bcl-xL expression” value is listed as “dose dependent reduction”. The “inhibition of cell proliferation” value in the series on BaF3/FLT3-ITD cells is given as “clear dose-dependent inhibition”. Further, the cytotoxicity effect result in series [5] was “negligible”. In addition, the “reduction of STAT5 phosphorylation” value with STAT5 (25 μM) was “clear reduction”. Moreover, in the series with STAT5, the “tyrosine phosphorylation of STAT5, dose dependence” value is “decrease the tyrosine phosphorylation of STAT5 in a dose dependent manner”; the “overall expression of endogenous STAT5” value is reported as “no effect”; the 50% inhibitory concentration (IC50) is 44.2 µM. At STAT5b-SH2 domain, this molecule displayed an equilibrium dissociation constant (Kd) of 76 µM and a Ki of 37.4 ± 1.2 µM. On STAT5b-SH2 domain (Table 1, ligand efficiency), the LE stood at 1.58 kJ/mol* atom#.

As for `CC(=O)OC(C)OC(=O)c1nonc1NCn1cnnn1` (centres unmarked) [Compound 15], on STAT3, the STAT3 phosphorylation entry is reported as “negligible effects” and the “endogenous STAT3 expression” value is listed as “negligible effects”. For the same molecule, the “Pim1, cyclin D1 and Bcl-xL expression” value in series [4] is “dose dependent reduction”. Also, in the series on BaF3/FLT3-ITD cells, the “inhibition of cell proliferation” value is “clear dose-dependent inhibition”. Besides, the cytotoxicity effect entry in series [5] was “negligible”. Besides, in the series on STAT5, the “tyrosine phosphorylation of STAT5, dose dependence” value is listed as “decrease the tyrosine phosphorylation of STAT5 in a dose dependent manner”; the “overall expression of endogenous STAT5” value is on record as “no effect”; the IC50 stood at 68.9 µM. On STAT5b-SH2 domain, this molecule came in with a Kd of 14 µM and a Ki of 4.6 ± 1.7 µM. The LE at STAT5b-SH2 domain (Table 1, ligand efficiency) came to 1.45 kJ/mol* atom#.

With `O=C(O)c1nonc1NCn1nnnc1Cc1ccccc1` [Compound 30, 4-((5-Benzyl-1H-tetrazol-1-yl)-methylamino)-furazan-3-carboxylic Acid], in the series “Solubility”, the solubility entry was “strongly improved solubility”. In addition, in the series on STAT5 (50 μM), the “reduction of STAT5 phosphorylation” value is reported as “clear reduction; also recorded: reduces STAT5 phosphorylation significantly”. The IC50 in the series with STAT5 was 30.8 µM. At STAT5b-SH2 domain, this molecule returned an inhibition constant (Ki) of 8.6 ± 2 µM and an LE of 1.31.
